Literature values in patent US20100105750A1, “STABLE METRONIDAZOLE GEL FORMULATIONS” (NYCOMED US INC., priority 2008, published 2010).

OCc1ccccc1 [benzyl alcohol]
water soluble: 4 g/100 mL
